# Reference: ChEMBL document CHEMBL3885881, “DrugMatrix”
# Species on record: Rattus norvegicus
# Assay: DrugMatrix - Regimen: Daily Repeat
# Assay type: toxicity, organism-based, Sprague-Dawley
# Design: regimen Daily Repeat, gender Male, age 6-8 weeks
# Details: in vivo, po, route oral GAVAGE, vehicle 100 % WATER; for ABSOLUTE BASOPHIL / ABSOLUTE EOSINOPHIL / ABSOLUTE LYMPHOCYTE / ABSOLUTE MONOCYTE / ABSOLUTE SEGMENTED NEUTROPHIL / BASOPHIL / EOSINOPHIL / ERYTHROCYTE COUNT / HEMATOCRIT / HEMOGLOBIN / LEUKOCYTE COUNT / LYMPHOCYTE / MEAN CORPUSCULAR HEMOGLOBIN / MEAN CORPUSCULAR HEMOGLOBIN CONCENTRATION / MEAN CORPUSCULAR VOLUME / MONOCYTE / NEUTROPHIL / NUCLEATED RED BLOOD CELLS / PLATELET COUNT: tissue Blood; for ALANINE AMINOTRANSFERASE / ALBUMIN / ALKALINE PHOSPHATASE / ASPARTATE AMINOTRANSFERASE / BLOOD UREA NITROGEN / CARBON DIOXIDE / CHLORIDE / CHOLESTEROL / CREATINE PHOSPHOKINASE / CREATININE / GLUCOSE / LACTATE DEHYDROGENASE / LIPASE / PHOSPHORUS / POTASSIUM / SODIUM / TOTAL BILIRUBIN / TOTAL PROTEIN / URIC ACID: tissue Plasma
# [1] = 31 mg/kg, 120 h, dose level Low, time 5 day
# [2] = 2629 mg/kg, 72 h, dose level High, time 3 day
# [3] = 2629 mg/kg, 120 h, dose level High, time 5 day
compound,measurement,setting,value
Nc1ccc(S(=O)(=O)Nc2nccs2)cc1 [SULFATHIAZOLE],ABSOLUTE BASOPHIL,[1],0 CELLS/uL
same,ABSOLUTE EOSINOPHIL,[1],44 CELLS/uL
same,ABSOLUTE LYMPHOCYTE,[1],11208.67 CELLS/uL
same,ABSOLUTE MONOCYTE,[1],0 CELLS/uL
same,ABSOLUTE SEGMENTED NEUTROPHIL,[1],914 CELLS/uL
same,BASOPHIL,[1],0%
same,EOSINOPHIL,[1],0.33%
same,ERYTHROCYTE COUNT,[1],5.37 x10E6/uL
same,HEMATOCRIT,[1],32.6%
same,HEMOGLOBIN,[1],12.8 G/DL
same,LEUKOCYTE COUNT,[1],12.17 x10E3/uL
same,LYMPHOCYTE,[1],92%
same,MEAN CORPUSCULAR HEMOGLOBIN,[1],23.87 pg
same,MEAN CORPUSCULAR HEMOGLOBIN CONCENTRATION,[1],39.27 G/DL
same,MEAN CORPUSCULAR VOLUME,[1],60.87 fL
same,MONOCYTE,[1],0%
same,NEUTROPHIL,[1],7.67%
same,NUCLEATED RED BLOOD CELLS,[1],0 /100WBC
same,PLATELET COUNT,[1],967.33 x10E3/uL
same,ALANINE AMINOTRANSFERASE,[1],55 u/L
same,ALBUMIN,[1],3.97 G/DL
same,ALKALINE PHOSPHATASE,[1],332.33 u/L
same,ASPARTATE AMINOTRANSFERASE,[1],80.33 u/L
same,BLOOD UREA NITROGEN,[1],15.33 mg/dL
same,CARBON DIOXIDE,[1],26.67 mmol/L
same,CHLORIDE,[1],101.67 MEQ/L
same,CHOLESTEROL,[1],68.33 mg/dL
same,CREATINE PHOSPHOKINASE,[1],466 u/L
same,CREATININE,[1],0.16 mg/dL
same,GLUCOSE,[1],230.67 mg/dL
same,LACTATE DEHYDROGENASE,[1],161.67 u/L
same,LIPASE,[1],8.33 u/L
same,PHOSPHORUS,[1],12.43 mg/dL
same,POTASSIUM,[1],5.22 MEQ/L
same,SODIUM,[1],142.17 MEQ/L
same,TOTAL BILIRUBIN,[1],0.13 mg/dL
same,TOTAL PROTEIN,[1],5.83 G/DL
same,URIC ACID,[1],1.13 mg/dL
same,ABSOLUTE BASOPHIL,[2],0 CELLS/uL
same,ABSOLUTE EOSINOPHIL,[2],0 CELLS/uL
same,ABSOLUTE LYMPHOCYTE,[2],13130 CELLS/uL
same,ABSOLUTE MONOCYTE,[2],74.67 CELLS/uL
same,ABSOLUTE SEGMENTED NEUTROPHIL,[2],1895.33 CELLS/uL
same,BASOPHIL,[2],0%
same,EOSINOPHIL,[2],0%
same,ERYTHROCYTE COUNT,[2],6.25 x10E6/uL
same,HEMATOCRIT,[2],39.77%
same,HEMOGLOBIN,[2],15.4 G/DL
same,LEUKOCYTE COUNT,[2],15.1 x10E3/uL
same,LYMPHOCYTE,[2],87%
same,MEAN CORPUSCULAR HEMOGLOBIN,[2],24.67 pg
same,MEAN CORPUSCULAR HEMOGLOBIN CONCENTRATION,[2],38.77 G/DL
same,MEAN CORPUSCULAR VOLUME,[2],63.6 fL
same,MONOCYTE,[2],0.67%
same,NEUTROPHIL,[2],12.33%
same,NUCLEATED RED BLOOD CELLS,[2],0.33 /100WBC
same,PLATELET COUNT,[2],1369.33 x10E3/uL
same,ALANINE AMINOTRANSFERASE,[2],62 u/L
same,ALBUMIN,[2],3.93 G/DL
same,ALKALINE PHOSPHATASE,[2],291 u/L
same,ASPARTATE AMINOTRANSFERASE,[2],83 u/L
same,BLOOD UREA NITROGEN,[2],13.33 mg/dL
same,CARBON DIOXIDE,[2],23.67 mmol/L
same,CHLORIDE,[2],105.33 MEQ/L
same,CHOLESTEROL,[2],68.67 mg/dL
same,CREATINE PHOSPHOKINASE,[2],777 u/L
same,CREATININE,[2],0.18 mg/dL
same,GLUCOSE,[2],146.67 mg/dL
same,LACTATE DEHYDROGENASE,[2],269.33 u/L
same,LIPASE,[2],9.33 u/L
same,PHOSPHORUS,[2],12.5 mg/dL
same,POTASSIUM,[2],5.42 MEQ/L
same,SODIUM,[2],148.07 MEQ/L
same,TOTAL BILIRUBIN,[2],0.1 mg/dL
same,TOTAL PROTEIN,[2],5.7 G/DL
same,URIC ACID,[2],2.33 mg/dL
same,ABSOLUTE BASOPHIL,[3],0 CELLS/uL
same,ABSOLUTE EOSINOPHIL,[3],30.33 CELLS/uL
same,ABSOLUTE LYMPHOCYTE,[3],11698 CELLS/uL
same,ABSOLUTE MONOCYTE,[3],241.67 CELLS/uL
same,ABSOLUTE SEGMENTED NEUTROPHIL,[3],1363.33 CELLS/uL
same,BASOPHIL,[3],0%
same,EOSINOPHIL,[3],0.33%
same,ERYTHROCYTE COUNT,[3],6.23 x10E6/uL
same,HEMATOCRIT,[3],38.77%
same,HEMOGLOBIN,[3],14.67 G/DL
same,LEUKOCYTE COUNT,[3],13.33 x10E3/uL
same,LYMPHOCYTE,[3],87%
same,MEAN CORPUSCULAR HEMOGLOBIN,[3],23.53 pg
same,MEAN CORPUSCULAR HEMOGLOBIN CONCENTRATION,[3],37.83 G/DL
same,MEAN CORPUSCULAR VOLUME,[3],62.27 fL
same,MONOCYTE,[3],2%
same,NEUTROPHIL,[3],10.67%
same,NUCLEATED RED BLOOD CELLS,[3],0.33 /100WBC
same,PLATELET COUNT,[3],1447 x10E3/uL
same,ALANINE AMINOTRANSFERASE,[3],59.33 u/L
same,ALBUMIN,[3],4.2 G/DL
same,ALKALINE PHOSPHATASE,[3],266.67 u/L
same,ASPARTATE AMINOTRANSFERASE,[3],58 u/L
same,BLOOD UREA NITROGEN,[3],14.33 mg/dL
same,CARBON DIOXIDE,[3],21.33 mmol/L
same,CHLORIDE,[3],105 MEQ/L
same,CHOLESTEROL,[3],64.33 mg/dL
same,CREATINE PHOSPHOKINASE,[3],224.67 u/L
same,CREATININE,[3],0.24 mg/dL
same,GLUCOSE,[3],148.67 mg/dL
same,LACTATE DEHYDROGENASE,[3],185.33 u/L
same,LIPASE,[3],11.33 u/L
same,PHOSPHORUS,[3],9.7 mg/dL
same,POTASSIUM,[3],5.17 MEQ/L
same,SODIUM,[3],145.03 MEQ/L
same,TOTAL BILIRUBIN,[3],0.1 mg/dL
same,TOTAL PROTEIN,[3],6 G/DL
same,URIC ACID,[3],1.37 mg/dL
